Measured values from ChEMBL document CHEMBL1152112, “1-Phenyl-[2H]-tetrahydropyridazin-3-one, A-53612, a selective orally active 5-lipoxygenase inhibitor” (Bioorg Med Chem Lett, 1992).

Columns and labels:
Cyclooxygenase = target: T1, Cyclooxygenase (Rattus norvegicus, UniProt P35355+Q63921); assay: Inhibitory activity against intact rat PMNL, PGE-2 cyclooxygenase was evaluated; assay type: protein assay
T1 sequence (P35355 whole entry): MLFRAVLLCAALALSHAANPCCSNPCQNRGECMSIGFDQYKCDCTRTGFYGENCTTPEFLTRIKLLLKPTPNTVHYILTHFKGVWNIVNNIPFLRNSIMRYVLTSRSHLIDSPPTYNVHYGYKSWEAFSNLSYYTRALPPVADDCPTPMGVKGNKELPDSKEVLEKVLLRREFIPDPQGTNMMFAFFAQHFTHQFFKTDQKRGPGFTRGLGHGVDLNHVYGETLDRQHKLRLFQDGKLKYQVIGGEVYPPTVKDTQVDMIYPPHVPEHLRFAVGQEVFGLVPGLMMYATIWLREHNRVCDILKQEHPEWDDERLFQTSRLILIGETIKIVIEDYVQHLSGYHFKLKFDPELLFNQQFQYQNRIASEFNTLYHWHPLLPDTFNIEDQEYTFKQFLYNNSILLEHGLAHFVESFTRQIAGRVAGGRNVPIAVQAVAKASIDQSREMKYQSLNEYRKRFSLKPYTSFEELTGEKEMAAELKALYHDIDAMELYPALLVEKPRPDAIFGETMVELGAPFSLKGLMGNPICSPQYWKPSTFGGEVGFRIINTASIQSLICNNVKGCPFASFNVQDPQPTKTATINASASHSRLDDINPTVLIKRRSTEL
T1 sequence (Q63921 whole entry): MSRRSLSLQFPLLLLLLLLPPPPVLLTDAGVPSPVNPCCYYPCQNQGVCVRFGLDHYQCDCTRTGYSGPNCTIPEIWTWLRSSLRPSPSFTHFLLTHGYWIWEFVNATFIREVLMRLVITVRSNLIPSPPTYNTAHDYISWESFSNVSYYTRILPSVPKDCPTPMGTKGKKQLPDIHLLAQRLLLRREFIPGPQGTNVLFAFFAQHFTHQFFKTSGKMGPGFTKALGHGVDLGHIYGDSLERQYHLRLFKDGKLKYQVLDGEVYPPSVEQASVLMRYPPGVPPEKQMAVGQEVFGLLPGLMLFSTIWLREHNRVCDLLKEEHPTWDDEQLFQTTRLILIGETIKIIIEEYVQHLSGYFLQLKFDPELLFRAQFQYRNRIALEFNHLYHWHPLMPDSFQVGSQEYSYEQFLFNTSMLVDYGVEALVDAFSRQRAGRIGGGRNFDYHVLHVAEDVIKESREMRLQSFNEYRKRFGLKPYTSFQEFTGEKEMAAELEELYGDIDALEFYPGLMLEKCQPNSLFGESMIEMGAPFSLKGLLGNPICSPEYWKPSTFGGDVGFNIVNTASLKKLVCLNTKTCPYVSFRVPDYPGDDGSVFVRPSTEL

Rattus norvegicus [1] = assay: The in vivo activity of compound was evaluated in a rat anaphylaxis model involving antigen-antibody stimulated leukotriene generation in the peritoneum by oral administration; assay type: functional
[2] = target: T2, Polyunsaturated fatty acid lipoxygenase ALOX12 (Homo sapiens) (UniProt P18054); assay: Inhibitory activity against human platelet 12-lipoxygenase was evaluated at 100 uM
T2 sequence (whole entry): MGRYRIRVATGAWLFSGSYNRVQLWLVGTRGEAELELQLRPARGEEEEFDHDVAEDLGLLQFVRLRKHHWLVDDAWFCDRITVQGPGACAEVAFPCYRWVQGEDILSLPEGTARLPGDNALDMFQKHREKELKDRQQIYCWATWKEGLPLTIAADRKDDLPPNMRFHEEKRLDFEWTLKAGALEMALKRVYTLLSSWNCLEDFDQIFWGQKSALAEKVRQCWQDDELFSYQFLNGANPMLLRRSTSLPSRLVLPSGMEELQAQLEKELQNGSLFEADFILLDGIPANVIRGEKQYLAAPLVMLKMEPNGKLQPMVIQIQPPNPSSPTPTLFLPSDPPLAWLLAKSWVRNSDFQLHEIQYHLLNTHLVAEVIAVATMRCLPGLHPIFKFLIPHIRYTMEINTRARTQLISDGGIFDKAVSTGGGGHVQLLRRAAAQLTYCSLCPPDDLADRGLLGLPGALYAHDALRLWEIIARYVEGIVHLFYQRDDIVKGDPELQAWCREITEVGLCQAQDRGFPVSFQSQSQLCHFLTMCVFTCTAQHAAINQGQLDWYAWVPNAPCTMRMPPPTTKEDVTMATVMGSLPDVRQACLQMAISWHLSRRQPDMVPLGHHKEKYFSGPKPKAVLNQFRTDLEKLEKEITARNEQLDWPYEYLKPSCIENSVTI

[3] = target: Cyclooxygenase (Homo sapiens) (UniProt P35354+P23219); assay: Inhibitory activity against human whole blood, TXB2 cyclooxygenase was evaluated at 100 uM; assay type: protein assay
[4] = Compound was evaluated for Plasma levels upon oral administration at 30 mg/kg in Monkey at maximum of 0.4 hours; assay type: ADME, organism-based; set-up: dose 30 mg/kg, route oral; conditions: cercopithecidae, read-out: Concentration
[5] = target: T3, Polyunsaturated fatty acid 5-lipoxygenase (Rattus norvegicus, UniProt P12527); assay: Inhibitory activity against RBL broken cell-supematant 5-lipoxygenase was evaluated; assay type: cell-based
T3 sequence (P12527 whole entry): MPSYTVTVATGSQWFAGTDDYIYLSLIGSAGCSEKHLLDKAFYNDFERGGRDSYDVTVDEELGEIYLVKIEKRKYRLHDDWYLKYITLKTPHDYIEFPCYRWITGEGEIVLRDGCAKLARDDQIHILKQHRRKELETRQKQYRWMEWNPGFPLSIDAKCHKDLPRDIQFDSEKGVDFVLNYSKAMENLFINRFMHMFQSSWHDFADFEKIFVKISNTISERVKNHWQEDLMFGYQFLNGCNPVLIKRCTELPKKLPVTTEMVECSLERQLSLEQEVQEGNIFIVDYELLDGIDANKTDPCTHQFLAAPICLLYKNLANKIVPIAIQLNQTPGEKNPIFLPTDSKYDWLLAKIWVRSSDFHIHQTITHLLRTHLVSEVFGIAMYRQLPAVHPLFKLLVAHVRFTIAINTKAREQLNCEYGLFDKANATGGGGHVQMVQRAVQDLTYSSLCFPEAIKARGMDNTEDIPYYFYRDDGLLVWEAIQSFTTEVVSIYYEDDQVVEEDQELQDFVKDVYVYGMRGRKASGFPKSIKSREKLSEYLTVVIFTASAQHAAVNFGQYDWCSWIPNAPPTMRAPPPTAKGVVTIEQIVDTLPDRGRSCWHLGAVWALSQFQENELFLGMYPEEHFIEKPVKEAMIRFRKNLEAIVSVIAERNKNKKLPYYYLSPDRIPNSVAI

[6] = target: T4, Polyunsaturated fatty acid 5-lipoxygenase (Homo sapiens, UniProt P09917); assay: Inhibitory activity against intact human PMNL, LTB4 5-lipoxygenase was evaluated
T4 sequence (P09917 whole entry): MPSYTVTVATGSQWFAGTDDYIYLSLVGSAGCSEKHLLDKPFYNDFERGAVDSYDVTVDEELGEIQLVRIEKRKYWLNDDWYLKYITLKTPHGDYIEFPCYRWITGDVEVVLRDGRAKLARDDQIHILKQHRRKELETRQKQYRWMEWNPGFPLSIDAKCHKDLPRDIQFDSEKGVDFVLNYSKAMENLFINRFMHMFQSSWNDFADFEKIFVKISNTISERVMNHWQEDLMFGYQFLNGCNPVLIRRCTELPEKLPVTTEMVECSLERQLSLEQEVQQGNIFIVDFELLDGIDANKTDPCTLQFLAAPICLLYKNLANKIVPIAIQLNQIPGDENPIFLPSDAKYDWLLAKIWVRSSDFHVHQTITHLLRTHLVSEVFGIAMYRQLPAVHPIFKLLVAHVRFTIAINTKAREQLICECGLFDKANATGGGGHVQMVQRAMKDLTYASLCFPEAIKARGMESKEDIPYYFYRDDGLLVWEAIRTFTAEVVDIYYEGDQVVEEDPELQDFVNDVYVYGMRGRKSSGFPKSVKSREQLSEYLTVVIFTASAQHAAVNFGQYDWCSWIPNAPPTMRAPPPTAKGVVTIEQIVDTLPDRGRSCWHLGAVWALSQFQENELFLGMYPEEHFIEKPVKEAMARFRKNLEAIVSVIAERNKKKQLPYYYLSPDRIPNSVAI

[7] = Compound was evaluated for Plasma levels upon oral administration at 30 mg/kg in Dog at maximum of 0.3 hours; assay type: ADME, organism-based, Canis lupus familiaris; set-up: dose 30 mg/kg, route oral
[8] = target: T4, Polyunsaturated fatty acid 5-lipoxygenase; assay: Inhibitory activity against human whole blood, LTB4 5-lipoxygenase was evaluated
Rattus norvegicus [9] = assay: In vivo activity of compound was evaluated in a rat anaphylaxis model involving antigen-antibody stimulated leukotriene generation in the peritoneum by oral administration; assay type: functional
[10] = target: Cyclooxygenase (Rattus norvegicus) (UniProt P35355+Q63921); assay: Inhibitory activity against intact rat PMNL, PGE-2 cyclooxygenase was evaluated at 100 uM; assay type: protein assay
[11] = target: T3, Polyunsaturated fatty acid 5-lipoxygenase; assay: Inhibitory activity against intact rat PMNL, LTB4 5-lipoxygenase was evaluated
[12] = Half-life upon intravenous administration was tested; assay type: ADME, organism-based; conditions: in vivo
[13] = Compound was evaluated for Plasma levels upon oral administration at 30 mg/kg in Monkey at maximum of 1.0 hours; assay type: ADME, organism-based; set-up: dose 30 mg/kg, route oral; conditions: cercopithecidae, read-out: Concentration
Rattus norvegicus [14] = species on record: Rattus norvegicus; assay: Toxicity was assessed from activity to convert hemoglobin to methemoglobin in vitro at 400 uM in rat; T-toxic
[15] = target: T5, Polyunsaturated fatty acid lipoxygenase ALOX12 (Homo sapiens, UniProt P18054); assay: Inhibitory activity against human platelet 12-lipoxygenase was evaluated
T5 sequence (P18054 whole entry): T2 sequence (whole entry)

`NC1=NN(c2cccc(C(F)(F)F)c2)CC1` [BW-755C] showed an IC50 (Cyclooxygenase) of 800 nM, an ED50 (Rattus norvegicus [1]) of 36 mg/kg and an inhibition [2] of 5%.

`O=C1CCCN(c2ccccc2)N1` gave an inhibition [3] of 13%, a Cmax [4] of 22 µM and an IC50 [5] of 4300 nM. For the same compound, the IC50 [6] was 1000 nM, the concentration at 0.3 h [7] was 124 µM and the IC50 [8] was 700 nM. The ED50 (Rattus norvegicus [9]) was 6 mg/kg, the inhibition [10] was 3% and the IC50 [11] was 1200 nM. It also gave a half-life [12] of 1.1 h, an inhibition [2] of 7% and a Cmax [13] of 90 µM.

For `O=C1CCCN(c2ccc(O[C@H]3O[C@@H](C(=O)O)[C@H](O)[C@@H](O)[C@@H]3O)cc2)N1`, the Activity (Rattus norvegicus [14]) was “Toxic”.

In the case of `O=C1CCC(O)N(c2ccccc2)N1` (stereo unspecified), the Activity (Rattus norvegicus [14]) is reported as “Toxic”.

For `O=C1CCN(c2ccccc2)N1` [PHENIDONE], the ED50 (Rattus norvegicus [1]) was 17 mg/kg and the IC50 [15] was 100 nM.

For `O=C1CCCN(c2ccc(O)cc2)N1`, the Activity (Rattus norvegicus [14]) was “Toxic”.

In the case of `O=C(O)[C@H]1O[C@@H](OC2=NN(c3ccccc3)CCC2)[C@H](O)[C@@H](O)[C@@H]1O`, the Activity (Rattus norvegicus [14]) is reported as “Toxic”.
